From paper doi:10.1101/2024.11.19.623840, “Targeting GOF p53 and c-MYC through LZK Inhibition or Degradation Suppresses Head and Neck Tumor Growth” (bioRxiv, 2024) come the findings set out here.

Each structure is given as a SMILES string. pKd: −log10 of the molar value.

Assay [1] has as its target T1, LZK (leucine zipper-bearing kinase) (Homo sapiens, UniProt O43283).
T1 construct: gene MAP3K13
T1 sequence (O43283 1-966): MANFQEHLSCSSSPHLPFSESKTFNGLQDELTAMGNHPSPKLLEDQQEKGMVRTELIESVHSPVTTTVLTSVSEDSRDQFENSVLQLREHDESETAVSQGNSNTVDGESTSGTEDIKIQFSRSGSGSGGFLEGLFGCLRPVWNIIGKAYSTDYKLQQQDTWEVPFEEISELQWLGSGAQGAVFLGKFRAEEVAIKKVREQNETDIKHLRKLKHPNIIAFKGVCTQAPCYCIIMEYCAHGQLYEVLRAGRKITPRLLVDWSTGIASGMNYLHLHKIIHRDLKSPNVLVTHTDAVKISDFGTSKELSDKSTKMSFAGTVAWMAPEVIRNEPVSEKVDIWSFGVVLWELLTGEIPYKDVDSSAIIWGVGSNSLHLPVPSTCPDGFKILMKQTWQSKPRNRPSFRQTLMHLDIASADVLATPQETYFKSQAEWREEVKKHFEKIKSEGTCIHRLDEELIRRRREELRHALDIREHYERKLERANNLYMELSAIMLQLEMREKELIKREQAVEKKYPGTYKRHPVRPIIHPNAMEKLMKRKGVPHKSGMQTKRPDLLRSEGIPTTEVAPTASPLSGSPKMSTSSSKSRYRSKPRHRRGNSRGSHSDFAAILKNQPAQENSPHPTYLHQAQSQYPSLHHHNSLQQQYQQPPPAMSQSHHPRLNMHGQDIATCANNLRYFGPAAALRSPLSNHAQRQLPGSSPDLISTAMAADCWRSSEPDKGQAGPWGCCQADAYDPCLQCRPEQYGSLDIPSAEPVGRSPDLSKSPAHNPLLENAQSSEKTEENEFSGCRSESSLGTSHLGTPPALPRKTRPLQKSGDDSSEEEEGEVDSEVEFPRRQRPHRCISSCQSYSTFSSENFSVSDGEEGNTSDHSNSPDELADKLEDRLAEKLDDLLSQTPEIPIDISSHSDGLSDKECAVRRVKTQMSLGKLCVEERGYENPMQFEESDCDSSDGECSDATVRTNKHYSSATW
Nature of the assay: LZK degradation Western blot in CAL33 cells with dox-induced LZK. The format is cell-based.

Assay [2] addresses T1, LZK (leucine zipper-bearing kinase). Nature of the assay: KdELECT KINOMEscan competition binding assay.

For `N#Cc1ccnc(Nc2cc(C3CCN(C(=O)CCCCCCC(=O)NCCCCNC(=O)CNc4cccc5c4C(=O)N(C4CCC(=O)NC4=O)C5=O)CC3)cc(N3CCC(F)(F)C3)n2)c1` (stereo not shown) [PROTAC-21B], in assay [1], the “LZK degradation Western blot in CAL33 cells with dox-induced LZK” value (“LZK degradation Western blot” below) was “PROTAC-21B, PROTAC-21C and PROTAC-21D (Figure 5B) also promoted degradation of LZK at higher concentrations”.

In assay [2], `Cc1ncsc1-c1ccc([C@H](C)NC(=O)[C@@H]2C[C@@H](O)CN2C(=O)[C@@H](NC(=O)CCCCCCC(=O)N2CCC(c3cc(Nc4cc(C#N)ccn4)nc(N4CCC(F)(F)C4)c3)CC2)C(C)(C)C)cc1` [PROTAC-21A] showed a pKd of 7.46.

Take `Cc1ncsc1-c1ccc([C@H](C)NC(=O)[C@@H]2C[C@@H](O)CN2C(=O)[C@@H](NC(=O)c2cncc(C(=O)N3CCC(c4cc(Nc5cc(C#N)ccn5)nc(N5CCC(F)(F)C5)c4)CC3)c2)C(C)(C)C)cc1` [PROTAC-21C]: in assay [1], the “LZK degradation Western blot” value is “PROTAC-21B, PROTAC-21C and PROTAC-21D (Figure 5B) also promoted degradation of LZK at higher concentrations”.

Regarding `N#Cc1ccnc(Nc2cc(C3CCN(C(=O)c4cncc(C(=O)NCCCCNC(=O)CNc5cccc6c5C(=O)N(C5CCC(=O)NC5=O)C6=O)c4)CC3)cc(N3CCC(F)(F)C3)n2)c1` (stereo not shown) [PROTAC-21D], the “LZK degradation Western blot” value in assay [1] is “PROTAC-21B, PROTAC-21C and PROTAC-21D (Figure 5B) also promoted degradation of LZK at higher concentrations”.
